# ChEMBL document CHEMBL5584320, “Pemuchiamides A and B, Proline-Rich Linear Lipopeptides, Isolated from a Marine Hormoscilla sp. Cyanobacterium” (J Nat Prod, 2024)
# Assays:
# HeLa = test: Growth inhibition of human HeLa cells assessed as reduction cell viability incubated for 72 hrs by MTT assay; format: functional, cell-based
# HL-60 = test: Growth inhibition of human HL-60 cells assessed as reduction cell viability incubated for 72 hrs by MTT assay; format: functional, cell-based; conditions: HL-60, 72 h
# [1] = test system: Trypanosoma brucei rhodesiense; test: Antitrypanosomal activity against blood stream form of Trypanosoma brucei rhodesiense IL-1501 assessed as growth inhibition incubated for 69 hrs by alamar blue staining based microplate fluorescence scanner analysis; format: functional, organism-based; conditions: IL-1501, 69 h
IC50 (HeLa) [µM],IC50 (HL-60) [µM],IC50 [1] [µM],Compound
3.9,2.1,5.4,CC[C@H](C)[C@H](NC(=O)[C@@H]1CCCN1C(=O)[C@@H](CC(C)C)NC(=O)[C@H]1CSC([C@@H]2CCCN2C(=O)[C@@H]2CCCN2C(=O)[C@@H](Cc2ccccc2)N(C)C(=O)CNC(=O)[C@@H](NC(=O)C[C@H](O)CNC(=O)CCCc2ccc(O)cc2)C(C)C)=N1)C(=O)N[C@H](Cc1ccccc1)C(=O)N1CCC[C@H]1C(=O)OC
2.9,1.4,0.63,CC[C@H](C)[C@H](NC(=O)[C@@H]1CCCN1C(=O)[C@@H](CC(C)C)NC(=O)[C@H]1CSC([C@@H]2CCCN2C(=O)[C@@H]2CCCN2C(=O)[C@@H](Cc2ccccc2)N(C)C(=O)CNC(=O)[C@@H](NC(=O)CCCNC(=O)CCCc2ccc(O)cc2)C(C)C)=N1)C(=O)N[C@H](Cc1ccccc1)C(=O)N1CCC[C@H]1C(=O)OC
0.29,0.011,,COc1cccc2c1C(=O)c1c(O)c3c(c(O)c1C2=O)C[C@@](O)(C(=O)CO)C[C@@H]3O[C@H]1C[C@H](N)[C@H](O)[C@H](C)O1 [DOXORUBICIN]
,,0.004,N=C(N)c1ccc(OCCCCCOc2ccc(C(=N)N)cc2)cc1 [PENTAMIDINE]
